Holding throughout (type): functional, cell-based
Experiment [1] deals with MCF7. Briefly: Cytotoxicity against human MCF7 cells assessed as growth inhibition after 96 hrs by crystal violet staining assay. The conditions noted are these: MCF7, 96 h.
Experiment [2] relates to 5637. Description: Cytotoxicity against human 5637 cells assessed as growth inhibition after 96 hrs by crystal violet staining assay. The following applies: Homo sapiens, 5637, 96 h.
A short description of experiment [3]: Cytotoxicity against human LCLC-103H cells assessed as growth inhibition after 96 hrs by crystal violet staining assay.
Experiment [4] relates to DAN-G. Briefly: Cytotoxicity against human DAN-G cells assessed as growth inhibition after 96 hrs by crystal violet staining assay.

pIC50: −log10 of the molar value. Where only a bound is given, the exact number is not on record here.

For the molecule `O=C(CCC(=O)c1ccc(-c2ccccc2)cc1)N[C@@H]1C[C@H](OCc2ccccc2)C[C@H]1O` (racemic), the pIC50 in experiment [1] was 4.80; in experiment [2] it was below 4.70; in experiment [3], below 4.70; in experiment [4], below 4.70.
On to `O=C(CCC(=O)c1ccc(-c2ccccc2)cc1)N[C@H]1C[C@H](OCc2ccccc2)C[C@@H]1O` (racemic), for which the pIC50 in experiment [1] is 4.85; in experiment [2], 4.69; in experiment [3] it was below 4.70; in experiment [4] it was below 4.70.
Regarding `O=C(CCCc1c[nH]c2ccccc12)N[C@@H]1C[C@H](Oc2ccc(-c3ccccc3)cc2)C[C@H]1O` (racemic), the pIC50 in experiment [1] was 5.17; in experiment [2], 4.92; in experiment [3], 4.87; in experiment [4] it was 4.89.
Take `O=C(N[C@@H]1C[C@H](Oc2ccc(-c3ccccc3)cc2)C[C@H]1O)C(c1ccccc1)c1ccccc1` (racemic): the pIC50 in experiment [1] was 5.05; in experiment [2] it was 4.91; in experiment [3], 4.91; in experiment [4], 4.89.
`O=C(N[C@H]1C[C@H](Oc2ccc(-c3ccccc3)cc2)C[C@@H]1O)C(c1ccccc1)c1ccccc1` (racemic): the pIC50 in experiment [1] is 4.99; in experiment [2], 4.90; in experiment [3], 4.88; in experiment [4], 4.76.
Consider `O=C(O)CCCc1ccc(N(CCCl)CCCl)cc1` [CHLORAMBUCIL], for which the values for the pIC50 in experiment [3] and in experiment [4] were 4.84 and 4.56, respectively.
With `N[C@@H](Cc1ccc(N(CCCl)CCCl)cc1)C(=O)O` [MELPHALAN], the pIC50 is 5.88 in experiment [2] and 5.40 in experiment [3].

Broadly, the pIC50 is the IC50 on a negative log10 scale, so that one unit is a factor of ten.

For the origin of these results see ChEMBL document CHEMBL3132770, “4-Aminocyclopentane-1,3-diols as platforms for diversity: synthesis of a screening library” (Medchemcomm, 2014).
